Patent publication US20230071441A1, “CIGARETTE FILTER CONTAINING NATURAL PLANT MATERIAL, PREPARATION METHOD THEREOF, AND CIGARETTE INCLUDING THE FILTER” (KT & G Corporation, priority 2019, published 2023)

How the values were obtained:
[1] = Methyl mercaptan reducing ability (deodorizing activity), headspace GC/MS; details: methyl mercaptan 1 μg/ml 2 ml, pH 7.5, 42 degrees C. 6 minutes; powders/granules 10 mg in 2 ml water; oil/flavoring liquid 2 ml; single ingredient 3 ppm
Experimental: Using the cigarette prepared in Example 24-1, an experiment was conducted to identify reducing ability for the methyl mercaptan as a representative halitosis ingredient in the cigarette smoke.
Pine needle and rosemary based powders, granules, oils, and flavoring liquid, as well as pine needle based fragrance carrying ingredients, that is, alpha-pinene, bonyl acetate, and rosemary based fragrance carrying ingredients, that is, 1,8-cineol, and borneol were added to the cigarette filter. Thus, a cigarette including the cigarette filter was prepared to identify methyl mercaptan reducing ability.
A content of methyl mercaptan as used was 1 ppm [1 μg/ml] 2 ml. When the pine needle and rosemary based powders and granules were used, 10 mg of the sample was extracted with 2 ml of water and was used. In one example, when using the oil and flavoring liquid based on pine needle and rosemary, 2 ml thereof was used. As for a single ingredient, 3 ppm (3 μg/ml) of the sample was extracted with 2 ml of water and was used.
The analysis experiment of reducing ability for methyl mercaptan included a pretreatment process of the sample, and the analysis process under the headspace sampler condition and the GC/MS-SIM condition. First, 10 mg of pine needle and rosemary based powders and granules sample were put into a 20 ml vial, which was immersed in 2 ml of water for 1 hour. Next, 2 ml of 0.2 M potassium phosphate was added thereto and the pH was adjusted to 7.5. Thereafter, 2 ml of methyl mercaptan (1 μg/ml) was added thereto and the vial was sealed, followed by stirring with a Vortex mixer for 5 seconds. In the headspace sampler, reaction occurred at 42 degrees C. for 6 minutes, and methyl mercaptan isolated into headspace was directly analyzed via GC/MS. An area of methyl mercaptan obtained as a result of the GC/MS analysis was compared with that of the control to determine the reduction percentage.
Deodorizing Activity (DA, %)=[C−S]/C×100 • C: methyl mercaptan area of control • S: Methyl mercaptan area of test group • See Tokita, F. et al. Nippon Nogeikagaku Kaishi 58(6), p 585 to 589 [1984].
The GC/MS instrument based analysis conditions were set as follows. Headspace Sampler conditions were set as follows: culture temperature: 42 degrees C., culture duration: 6 minutes, and transfer liner temperature: 100 degrees C.
The GC/MS-SIM conditions were set as follows: DB-624(60 m, 0.25 mm, 0.25 um) column was used; Oven Temp: 35 degrees C. for 10 minutes; post run: 250 degrees C. for 30 minutes. Injector/Interface Temp was 150 degrees C. or 220 degrees C. For injection, Split 10:1, flow rate 1 ml/min, methyl mercaptan ion (m/z): quantitative ion 47; and qualitative ion 48 and 45. […]

[2] = tested on: halitosis ingredient (Hydrogen sulfide) derived from oral microbes; assay: Sedimentation of halitosis ingredient by absorbance analysis (FeS, 700 nm) in cultured saliva; assay type: cell-based, oral bacteria in saliva; details: cultured saliva 0.5 ml, FeSO4, 24 hours 37 degrees C. anaerobic, absorbance 700 nm
Experimental: Using the cigarette prepared in Example 24-1, the sedimentation of halitosis ingredient thereof was measured via absorbance analysis. To this end, an experiment was conducted to identify the reducing ability for the halitosis ingredient derived from oral microbes when smoking the cigarette with the filter having the pine needle and rosemary based substances added thereto.
The experiment for measuring the sedimentation of halitosis ingredients was as follows. Hydrogen sulfide in a volatile sulfur compound as mouth odor ingredient generated when cultivating oral bacteria in saliva was combined with iron in a liquid state such that iron sulfide (FeS) in a form of a black precipitate occurred. Thus, the sedimentation of halitosis ingredient was analyzed. First, whole saliva was incubated for 48 hours at 37 degrees C. under anaerobic conditions. Then, […] of oil based test substance or 20 μl of a single ingredient was added to 0.5 ml cultured saliva. 0.05 g surfactant was added thereto. The salvia was mixed with 0.05 g ferrous sulfate II (FeSO4). The mixture was incubated for 24 hours at 37 degrees C. under anaerobic conditions. Thus, absorbance of the culture was measured at 700 nm to determine sedimentation of halitosis ingredients.
However, there was a limit in the detection in the direct analysis of cigarette due to the difference in smoking amount.

Compound	Methyl mercaptan Reducing ability (%) [1] [%]	Halitosis ingredient (Hydrogen sulfide) Reducing ability (%) [2] [%]
CC12CCC(CC1)C(C)(C)O2 [1,8-Cineol]	51.9	37.0
CC(=O)O[C@@H]1C[C@@H]2CC[C@@]1(C)C2(C)C [Bonyl acetate]	41.7	36.0
CC1(C)C2CCC1(C)C(O)C2 (centres unmarked) [Borneol]	30.7	45.0
CC1=CCC2CC1C2(C)C (stereo not drawn) [α-Pinene]	54.7	50.0
